Assay results reported in US5834259A, “Process and composition for preparing D-aspartic acid” (Monsanto Company, priority 1996, dated 1998).

Tests used:
Assay type in all cases: biochemical, E. coli K12
[1] = biological target: T1, L-aspartate-α-decarboxylase (Escherichia coli, UniProt P0A790); assay: Bioconversion of 0.5M D/L-aspartate with NS3291 cells (Example 3)
T1 construct: expressed in transfected cells; host or cells: E. coli W3110 transformed with pIF309 = strain NS3291 (ATCC 98675), whole cells
Description: 66.5 g (0.5M) D/L-aspartate (Sigma, A-9006) was weighed into a 2 L beaker and the pH adjusted to 7.0 with 10N NaOH. The volume was brought to 963 ml with deionized H2 O. 137 ml of cells (NS 3291, described above) were added at a packed cell volume ("PCV") of 7.31 g/10 ml cells resulting in a final volume of 1.1 L. Samples (approximately 1 ml each) were removed over time, centrifuged and the supernatant fluid was analyzed by HPLC for D- and L-aspartic acid content.
In all of the Examples herein, D- and L-aspartic acid isomers were quantified by HPLC using the following precolumn derivatization method. Aspartic acid was converted into diastereomers using ortho-phthalaldehyde and N-acetyl-L-cysteine. Separation of the diastereomers was achieved on a Supelcosil™ LC-18DB, 3μ, 150×4.6 mm column using a mobile phase of A: 20% methanol/80% triethylamine phosphate and B: methanol, and a step gradient as follows: […]
Retention times were 4.19 minutes and 4.54 minutes for D-aspartic acid and L-aspartic acid, respectively.
Samples from bioconversions were centrifuged to remove cells in a microcentrifuge and the supernatant fluid diluted appropriately such that the value determined from the HPLC fell within the linear region of the standard curve. These dilutions were usually between 1:100 and 1:200, made with deionized water.

[2] = biological target: T1, L-aspartate-α-decarboxylase; assay: 1.0M D/L-aspartate, 100 g/l cells, reaction A (Example 6); details: 1.0M, 100 g/l cells, 37° C.
Description: (§1) 1.0M D/L-aspartate was tested as a substrate for two enzyme cell loads, 100 g/l cells, referred to here as reaction "A", and 50 g/l cells, referred to here as reaction "B".
(§2) 133.1 g of D/L-aspartic acid was dissolved in approximately 600 ml deionized H2 O and pH was adjusted to 7.0 with NaOH, using 100 ml of 10N NaOH and a small amount of 1.0N NaOH. The substrate for reaction A was brought to 963 ml with deionized H2 O. The reaction was started with 137 ml cells that were stored in the cold room. For reaction B, the substrate was brought to a volume of 981.5 ml. The reaction was started with […] cells.
(§3) Both reactions were carried out in 2 L fermentors at pH 7.0 without constant adjustments and at 37° C. Samples were removed over time, centrifuged and the supernatant fluid was diluted and submitted for D- and L-aspartic acid HPLC analysis.

[3] = biological target: T1, L-aspartate-α-decarboxylase; assay: 1.0M D/L-aspartate, 50 g/l cells, reaction B (Example 6); details: 37° C.
Description: as §1, §2, §3

[4] = biological target: T1, L-aspartate-α-decarboxylase; assay: Temperature study, 45° C. (Example 9); details: for concentration in supernatant fluid / percent remaining: 1.0M, 100 g/l cells
Description: (§4) 133.1 g (1 mol) of D/L-aspartic acid was dissolved in deionized H2 O and the pH was adjusted to 7.0 with 10N NaOH, approximately 100 ml. Cells, freshly thawed from -80° C., were added to achieve a final concentration of 100 g/l. Three 2 L fermentors were each charged with 963 ml of substrate solution and 137 ml of cells and then heated to 37° C. and 45° C. while mixing at 300 rpm or heated to 50° C. while mixing at 450 rpm. Samples, approximately 1 ml, were removed over time and pH adjusted to 7.0 with either NaOH or HCl. After centrifugation to remove cells, the supernatant fluid was analyzed for both D- and L-aspartic acid.

[5] = biological target: T1, L-aspartate-α-decarboxylase; assay: Temperature study, 50° C. (Example 9); details: for concentration in supernatant fluid / percent remaining: 1.0M, 100 g/l cells
Description: as §4

T1 sequence (P0A790 25-126): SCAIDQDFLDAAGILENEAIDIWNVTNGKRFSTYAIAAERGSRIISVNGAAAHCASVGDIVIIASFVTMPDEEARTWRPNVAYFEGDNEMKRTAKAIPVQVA
T1 sequence (P0A790 1-24): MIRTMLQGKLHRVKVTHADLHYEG

N[C@H](CC(=O)O)C(=O)O [D-Asp, D-aspartic acid]
percent remaining ([1]; 5.5000 hr): 100.07%
percent remaining ([1]; 24.500 hr): 99.829%
percent remaining ([1]; 26.500 hr): 94.676%
percent remaining ([1]; 32.500 hr): 95.870%
percent remaining ([1]; 47.500 hr): 95.768%
percent remaining ([1]; 52.000 hr): 96.894%
percent remaining ([1]; 68.000 hr): 87.099%
concentration in supernatant fluid ([2]; 0.0000 hr): 53.600 mg/mL
concentration in supernatant fluid ([2]; 2.0000 hr): 50.680 mg/mL
concentration in supernatant fluid ([2]; 4.5000 hr): 44.920 mg/mL
concentration in supernatant fluid ([2]; 7.0000 hr): 42.260 mg/mL
concentration in supernatant fluid ([2]; 22.500 hr): 35.680 mg/mL
concentration in supernatant fluid ([2]; 24.000 hr): 34.420 mg/mL
concentration in supernatant fluid ([2]; 31.000 hr): 32.660 mg/mL
concentration in supernatant fluid ([2]; 37.500 hr): 27.950 mg/mL
concentration in supernatant fluid ([2]; 47.000 hr): 20.710 mg/mL
concentration in supernatant fluid ([2]; 50.500 hr): 18.490 mg/mL
concentration in supernatant fluid ([2]; 53.800 hr): 13.730 mg/mL
concentration in supernatant fluid ([2]; 58.000 hr): 13.410 mg/mL
concentration in supernatant fluid ([2]; 70.000 hr): 6.1300 mg/mL
concentration in supernatant fluid ([2]; 72.000 hr): 5.3900 mg/mL
concentration in supernatant fluid ([3]; 0.0000 hr): 56.730 mg/mL
concentration in supernatant fluid ([3]; 2.0000 hr): 52.420 mg/mL
concentration in supernatant fluid ([3]; 4.5000 hr): 51.340 mg/mL
concentration in supernatant fluid ([3]; 7.0000 hr): 50.470 mg/mL
stability of the isomer [4]: stable
concentration in supernatant fluid ([4]; 0.000 hr): 55.280 mg/mL
concentration in supernatant fluid ([4]; 2.5000 hr): 54.820 mg/mL
percent remaining ([4]; 2.5000 hr): 99.168%
concentration in supernatant fluid ([4]; 4.0000 hr): 53.960 mg/mL
percent remaining ([4]; 4.0000 hr): 97.612%
concentration in supernatant fluid ([4]; 6.0000 hr): 53.460 mg/mL
percent remaining ([4]; 6.0000 hr): 96.708%
concentration in supernatant fluid ([4]; 8.0000 hr): 54.040 mg/mL
percent remaining ([4]; 8.0000 hr): 97.757%
concentration in supernatant fluid ([4]; 10.000 hr): 54.870 mg/mL
percent remaining ([4]; 10.000 hr): 99.258%
concentration in supernatant fluid ([4]; 12.000 hr): 54.060 mg/mL
percent remaining ([4]; 12.000 hr): 97.793%
concentration in supernatant fluid ([4]; 20.000 hr): 52.360 mg/mL
percent remaining ([4]; 20.000 hr): 94.718%
concentration in supernatant fluid ([4]; 24.000 hr): 51.310 mg/mL
percent remaining ([4]; 24.000 hr): 92.818%
concentration in supernatant fluid ([4]; 29.000 hr): 53.830 mg/mL
percent remaining ([4]; 29.000 hr): 97.377%
concentration in supernatant fluid ([4]; 34.000 hr): 52.880 mg/mL
percent remaining ([4]; 34.000 hr): 95.658%
concentration in supernatant fluid ([4]; 44.000 hr): 53.640 mg/mL
percent remaining ([4]; 44.000 hr): 97.033%
concentration in supernatant fluid ([4]; 48.000 hr): 52.730 mg/mL
percent remaining ([4]; 48.000 hr): 95.387%
concentration in supernatant fluid ([4]; 68.000 hr): 53.560 mg/mL
percent remaining ([4]; 68.000 hr): 96.889%
concentration in supernatant fluid ([4]; 92.000 hr): 53.560 mg/mL
percent remaining ([4]; 92.000 hr): 96.889%
stability of the isomer [5]: stable
concentration in supernatant fluid ([5]; 0.000 hr): 54.89 mg/mL
concentration in supernatant fluid ([5]; 1.000 hr): 54.30 mg/mL
percent remaining ([5]; 1.000 hr): 52.78%
concentration in supernatant fluid ([5]; 3.000 hr): 58.01 mg/mL
percent remaining ([5]; 3.000 hr): 40.61%
concentration in supernatant fluid ([5]; 5.0000 hr): 58.16 mg/mL
percent remaining ([5]; 5.0000 hr): 36.97%
concentration in supernatant fluid ([5]; 7.000 hr): 58.51 mg/mL
percent remaining ([5]; 7.000 hr): 35.69%
concentration in supernatant fluid ([5]; 9.000 hr): 58.88 mg/mL
percent remaining ([5]; 9.000 hr): 33.99%
concentration in supernatant fluid ([5]; 13.50 hr): 59.62 mg/mL
percent remaining ([5]; 13.50 hr): 34.19%
concentration in supernatant fluid ([5]; 23.00 hr): 56.71 mg/mL
percent remaining ([5]; 23.00 hr): 31.98%
concentration in supernatant fluid ([5]; 25.00 hr): 59.85 mg/mL
percent remaining ([5]; 25.00 hr): 31.86%
concentration in supernatant fluid ([5]; 27.00 hr): 56.87 mg/mL
percent remaining ([5]; 27.00 hr): 26.89%
concentration in supernatant fluid ([5]; 32.00 hr): 57.30 mg/mL
percent remaining ([5]; 32.00 hr): 25.85%
concentration in supernatant fluid ([5]; 37.50 hr): 58.48 mg/mL
percent remaining ([5]; 37.50 hr): 27.54%
concentration in supernatant fluid ([5]; 47.00 hr): 57.93 mg/mL
percent remaining ([5]; 47.00 hr): 25.58%
concentration in supernatant fluid ([5]; 52.00 hr): 58.74 mg/mL
percent remaining ([5]; 52.00 hr): 27.28%
concentration in supernatant fluid ([5]; 57.00 hr): 65.56 mg/mL
percent remaining ([5]; 57.00 hr): 32.42%
concentration in supernatant fluid ([5]; 71.00 hr): 57.17 mg/mL
percent remaining ([5]; 71.00 hr): 25.52%
concentration in supernatant fluid ([5]; 77.00 hr): 57.85 mg/mL
percent remaining ([5]; 77.00 hr): 25.86%
concentration in supernatant fluid ([5]; 81.00 hr): 57.41 mg/mL
percent remaining ([5]; 81.00 hr): 25.54%
concentration in supernatant fluid ([5]; 99.75 hr): 59.36 mg/mL
percent remaining ([5]; 99.75 hr): 26.14%
